How the values were obtained:
Assay type in all cases: in vivo
[1] = tested on: APESV = Apera spica-venti (common wind grass); experiment: Field trial in winter wheat, post-emergence method: herbicidal effect on APESV; conditions: post-emergence at middle tillering stage, evaluation 21 days after application, dose 50 g ai/ha
Procedure: (§1) The herbicidal efficacy of the active compounds or active compound mixtures was scored visually using the treated plots in comparison to untreated control plots. The damage and development of all above-ground parts of the plants were recorded. Scoring was carried out using a percentage scale (100% effect=all plants killed; 50% effect=50% of the plants and the green parts of the plants killed; 0% effect no noticeable effect=like control plot). The scores of in each case 4 plots were averaged.
(§2) Crop plants were grown outdoors on plots under natural outdoor conditions, and seeds or rhizome pieces of typical harmful plants were laid out or the natural weed growth was utilized. Treatment with the compositions according to the invention was carried out after the harmful plants had emerged and the crop plants were, generally, at the 2- to 4-leaf stage; in some cases (as stated), application of individual active compounds or active compound combinations was carried out pre-emergence (cf. Section 1) or post-emergence (cf. Section 2) or as a sequential treatment partly pre-emergence and/or post-emergence. After the application, for example 2, 4, 6 and 8 weeks after the application, the effect of the preparations was scored visually by comparison with untreated controls (cf. scoring in Section 1). […]

Winter wheat = experiment: Field trial in winter wheat, post-emergence method: crop damage; conditions: post-emergence at middle tillering stage, evaluation 21 days after application, dose 50 g ai/ha
Procedure: as §1, §2

Corn = experiment: Field trial in corn, pre-emergence method: crop damage
Procedure: as §1
(§3) Crop plants were grown outdoors on plots under natural outdoor conditions, and seeds or rhizome pieces of typical harmful plants were laid out or the natural weed growth was utilized. Treatment with the compositions according to the invention was carried out after the harmful plants had emerged and the crop plants were, generally, at the 2- to 4-leaf stage; in some cases (as stated), application of individual active compounds or active compound combinations was carried out pre-emergence (cf. Section 1) or post-emergence (cf. Section 2) or as a sequential treatment partly pre-emergence and/or post-emergence. After the application, for example 2, 4, 6 and 8 weeks after the application, the effect of the preparations was scored visually by comparison with untreated controls (cf. scoring in Section 1). In the field trial as well, the compositions according to the invention have synergistic herbicidal activity against a broad spectrum of economically important weed grasses and broad-leaved weeds. […] Moreover, the effects in essential phases of the scoring period were above the expected values according to Colby, also indicating synergism. In contrast, the crop plants were, as a consequence of the treatments with the herbicidal compositions, damaged only to a small degree, if at all.
(§4) The numbers in the columns of the table under the designations of the harmful plants and the crop plants relate to the herbicidal effects or damage to the plants in percent.

ECHCG = experiment: Field trial in corn, pre-emergence method: herbicidal effect on ECHCG; conditions: evaluation 36 days after application
Procedure: as §1, §3, §4

CHEAL = experiment: Field trial in corn, pre-emergence method: herbicidal effect on CHEAL; conditions: evaluation 36 days after application
Procedure: as §1, §3, §4

[2] = field trial, pre-emergence, evaluation 36 days after application, dose 75 g ai/ha

| SMILES | APESV [effect in %] [1] | Winter wheat [damage in %] (Winter wheat) | Corn [damage in %] (Corn; [2]) | ECHCG [effect in %] (ECHCG; dose 75 g ai/ha) | CHEAL [effect in %] (CHEAL; dose 75 g ai/ha) | other results |
| --- | --- | --- | --- | --- | --- | --- |
| CCC(F)c1nc(N)nc(C(C)c2cc(F)cc(F)c2)n1 (stereo not shown) [(A60), 2-amino-4-(1-fluoropropyl)-6-[1-(3,5-difluorophenyl)ethyl]-1,3,5-triazine] | 0% | 0% | – | – | – | – |
| CCC(F)c1nc(N)nc(C(C)c2ccc(F)c(Cl)c2)n1 (stereo not shown) [(A50), 2-amino-4-(1-fluoropropyl)-6-[1-(3-chloro-4-fluorophenyl)ethyl]-1,3,5-triazine] | 0% | 0% | – | – | – | – |
| CS(=O)(=O)c1cc(C(F)(F)F)ccc1C(=O)c1cnoc1C1CC1 [(B3.4.4), isoxaflutole, reference compound] | – | – | – | – | – | Corn [damage in %] (Corn; corn, in vivo, 36 days): 0%; ECHCG [effect in %] (ECHCG; dose 50 g ai/ha): 86%; CHEAL [effect in %] (CHEAL; dose 50 g ai/ha): 25% |
| CCC(F)c1nc(N)nc(C(C)c2ccc(F)c(C)c2)n1 (stereo not shown) [(A20), 2-amino-4-(1-fluoropropyl)-6-[1-(3-methyl-4-fluorophenyl)ethyl]-1,3,5-triazine] | – | – | 0% | 0% | 20% | – |
| CC(F)c1nc(N)nc(C(C)c2ccc(F)c(F)c2)n1 (stereo not shown) [(A11), 2-amino-4-(1-fluoroethyl)-6-[1-(3,4-difluorophenyl)ethyl]-1,3,5-triazine] | – | – | 0% | 0% | 0% | – |

Reference: patent US20030087761A1, “Synergistic active compound combinations for controlling harmful plants” (priority 2001, published 2003)
